Laboratory results published in US20200354404A1, “PEPT[…], […] AND USES THEREOF” (priority 2019, published 2020).
Where “and” joins values, the source holds several entries; their conditions need not be identical. Equal values may be shown once. Read-outs that look alike come from different tables or passages of the source. Where no end group is shown, it is not given here.

Tests used:
[1] = Stability of endomorphin-2 in mouse serum; assay type: in vitro ADME; conditions: read-out: amount (AUC O.D.254) in mouse serum less than amount originally placed
Source text: In addition, as the result of the rapid hydrolysis and enzymatic degradation, a number of peptides are not stable enough to be used in drug discovery, diagnosis, prevention and treatment of diseases.
A graph of stability of EM2 and K763 in mice serum is depicted in FIG. 11.

[2] = Animal studies (protection); conditions: in vivo
[3] = in vivo; conditions: male, Sprague-Dawley, rat, 1 mg/kg; for AUC(0-t): AUClast; for AUC(0-t) / MRT last: iv 1 mg/kg; for MRT last: MRTlast
[4] = in vitro; conditions: mouse, mouse serum
[5] = cited from earlier work
[6] = target: OPRM-1 receptor (Homo sapiens, UniProt P35372); experiment: Binding to OPRM-1; conditions: FIG. 10
Source text: FIG. 10 are graphs depicting binding of K763 and Endomorphin-2 binding to OPRM-1.
The binding is depicted in FIG. 10.

[7] = tested on: HMGB1-induced TNF secretion; experiment: HMGB1-induced TNF secretion; assay type: cell-based; conditions: FIG. 7
[8] = tested on: mice; experiment: APAP-induced cytokines, liver enzymes and lethality in mice; assay type: in vivo
[9] = iv 1 mg/kg
[10] = target: IRTK (Homo sapiens, UniProt P06213); conditions: Kato et al. 2009; cited from earlier work
[11] = in vitro; conditions: mouse, serum
Description: Stability of Bradykinin amide and (1-9)-Aza-Bradykinin in serum was measured.

Chain of OPRM-1 receptor (P35372 whole entry): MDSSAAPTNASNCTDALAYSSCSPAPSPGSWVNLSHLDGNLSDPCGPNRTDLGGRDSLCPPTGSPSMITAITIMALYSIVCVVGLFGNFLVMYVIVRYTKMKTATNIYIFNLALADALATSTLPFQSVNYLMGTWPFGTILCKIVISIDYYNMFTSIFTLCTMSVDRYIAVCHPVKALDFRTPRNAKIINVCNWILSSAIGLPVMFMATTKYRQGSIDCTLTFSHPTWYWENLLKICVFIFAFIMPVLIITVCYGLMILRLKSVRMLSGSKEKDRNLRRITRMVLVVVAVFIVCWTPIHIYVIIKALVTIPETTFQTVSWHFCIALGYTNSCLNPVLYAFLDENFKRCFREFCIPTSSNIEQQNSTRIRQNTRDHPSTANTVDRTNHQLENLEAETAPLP
Chain of IRTK (P06213 28-1382): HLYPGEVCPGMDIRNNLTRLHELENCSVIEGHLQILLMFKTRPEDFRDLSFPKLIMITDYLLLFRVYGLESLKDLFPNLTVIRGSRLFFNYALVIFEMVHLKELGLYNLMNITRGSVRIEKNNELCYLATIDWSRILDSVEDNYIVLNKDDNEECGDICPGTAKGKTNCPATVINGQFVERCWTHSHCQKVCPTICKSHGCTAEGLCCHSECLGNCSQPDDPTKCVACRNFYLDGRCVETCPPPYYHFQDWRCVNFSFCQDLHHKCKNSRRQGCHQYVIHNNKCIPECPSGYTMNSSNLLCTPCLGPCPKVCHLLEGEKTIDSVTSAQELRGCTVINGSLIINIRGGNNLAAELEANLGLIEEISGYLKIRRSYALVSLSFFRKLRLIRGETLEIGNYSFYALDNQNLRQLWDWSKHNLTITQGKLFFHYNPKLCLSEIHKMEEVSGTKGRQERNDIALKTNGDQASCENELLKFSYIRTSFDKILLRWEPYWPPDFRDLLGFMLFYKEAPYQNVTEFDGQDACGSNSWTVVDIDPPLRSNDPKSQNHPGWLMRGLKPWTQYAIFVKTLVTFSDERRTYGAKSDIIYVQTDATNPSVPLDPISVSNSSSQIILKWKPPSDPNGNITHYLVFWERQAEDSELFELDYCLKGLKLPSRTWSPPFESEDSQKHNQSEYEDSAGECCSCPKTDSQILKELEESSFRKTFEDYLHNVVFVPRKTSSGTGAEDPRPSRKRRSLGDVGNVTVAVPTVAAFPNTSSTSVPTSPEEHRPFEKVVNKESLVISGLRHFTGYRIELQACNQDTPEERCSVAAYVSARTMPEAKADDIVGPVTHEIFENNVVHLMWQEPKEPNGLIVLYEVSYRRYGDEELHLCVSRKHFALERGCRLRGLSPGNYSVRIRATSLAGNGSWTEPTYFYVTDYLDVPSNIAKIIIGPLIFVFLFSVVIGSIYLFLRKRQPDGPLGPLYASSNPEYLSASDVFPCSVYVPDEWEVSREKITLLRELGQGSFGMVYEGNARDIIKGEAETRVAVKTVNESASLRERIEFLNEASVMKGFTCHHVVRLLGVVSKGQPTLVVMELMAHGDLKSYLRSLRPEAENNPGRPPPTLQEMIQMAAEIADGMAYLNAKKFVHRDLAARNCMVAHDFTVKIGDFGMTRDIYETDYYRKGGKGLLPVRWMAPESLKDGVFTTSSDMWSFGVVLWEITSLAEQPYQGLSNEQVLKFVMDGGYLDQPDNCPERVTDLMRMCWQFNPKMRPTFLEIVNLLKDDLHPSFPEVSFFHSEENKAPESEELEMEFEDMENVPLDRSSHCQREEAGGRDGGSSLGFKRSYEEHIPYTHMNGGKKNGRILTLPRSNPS

Work on `NC(=O)C(Cc1ccccc1)NC(=O)C(Cc1ccccc1)NC(=O)[C@@H]1CCCN1C(=O)C(N)Cc1ccc(O)cc1` (stereo partly drawn) [Endomorphin-2] yielded a metabolised at 2 h [1] of roughly 95%.
In the case of `N[C@@H](Cc1ccccc1)C(=O)N[C@@H](CO)C(=O)N[C@@H](CO)C(=O)N[C@@H](CCC(=O)O)C(=O)O` [FSSE, reference compound], the “protection in animal studies (in words)” value [2] is reported as “protective”, the half-life [3] is reported as less than 1 min and the half-life [4] is reported as 60 min. For the same compound, the in vivo half-life ([5]; in vivo) was “less than 5 minutes”.
In the case of `NC(=O)N(Cc1ccccc1)NC(=O)N(Cc1ccccc1)NC(=O)[C@@H]1CCCN1C(=O)N(N)Cc1ccc(O)cc1` [K763], the “affinity for OPRM-1 compared with Endomorphin-2 (in words)” value [6] is reported as “stronger affinity than Endomorphin-2” and the “binding to OPRM-1 receptor (in words)” value [6] is reported as “shown to bind”.
With `NC(=O)N(CCC(=O)O)NC(=O)[C@H](CO)NC(=O)[C@H](CO)NC(=O)N(N)Cc1ccccc1` [K883] the “HMGB1-induced TNF secretion (in words)” value [7] was “inhibits”, the “APAP-induced pro-inflammatory cytokines (in words)” value ([8]; FIG. 8) was “reduction” and the “APAP-induced serum liver enzymes (in words)” value ([8]; FIG. 8) was “reduction”. For the same compound, the “APAP-induced lethality in mice (in words)” value ([8]; FIG. 9) was “reduced”, the “protection in animal studies (in words)” value [2] was “protective” and the Plasma concentration ([9]; 0.50 hr, individual rats, 1 mg/kg) was 3020 ng/mL and 2500 ng/mL and 3220 ng/mL. For the same compound, the Plasma concentration ([9]; 1.0 hr, individual rats, 1 mg/kg) was 814 ng/mL and 1160 ng/mL and 1300 ng/mL, the Plasma concentration ([9]; 2.0 hr, individual rats, 1 mg/kg) was 133 ng/mL and 130 ng/mL and 142 ng/mL and the Plasma concentration ([9]; 4.0 hr, individual rats, 1 mg/kg) was 17.0 ng/mL and 15.1 ng/mL and 17.1 ng/mL. The Plasma concentration ([9]; 6.0 hr, individual rats, 1 mg/kg) was 6.49 ng/mL and 4.04 ng/mL and 4.77 ng/mL, the Plasma concentration ([9]; 8.0 hr, individual rats, 1 mg/kg) was 2.0 ng/mL and 0.871 ng/mL and 1.68 ng/mL and the tmax ([9]; individual rats) was 0 h. The AUClast ([9]; individual rats, 1 mg/kg) was 3807 ng·h/mL and 3749 ng·h/mL, the “tmax, Mean” value ([9]; mean of 3 rats) was 0 h and the half-life ([3]; in vivo half-life) was greater than 69 min. It also gave a level at 0.5 h ([3]; iv) of 2910 ng/mL, a level at 1 h ([3]; iv) of 1090 ng/mL and a level at 2 h ([3]; iv) of 135 ng/mL. The level at 4 h ([3]; iv) was 16.6 ng/mL, the level at 6 h ([3]; iv) was 5.1 ng/mL and the level at 8 h ([3]; iv) was 1.52 ng/mL. The AUC(0-t) ([3]; iv, Mean, mean of 3 rats) was 3780 ng·h/mL, the AUC(0-t) ([3]; iv, individual rats) was 3770 ng·h/mL and the MRT last ([3]; iv, Mean, mean of 3 rats) was 33.4 min. For the same compound, the MRT last ([3]; iv, individual rats) was 32.1 min and the half-life [4] was greater than 900 min.
In the case of Ac-Asp1-Ile2-Tyr3-Glu4-Thr5-NH2, the “IRTK phosphorylation (in words)” value [10] is listed as “inhibit”.
In the case of RPPGFSPFR [bradykinin], the metabolised at 3 h [11] is listed as roughly 97% and the in vivo half-life ([5]; background statement) is listed as “less than 1 minutes”.
